According to US10759781B2, “Substituted guanidine derivatives” (UBE INDUSTRIES, LTD., priority 2015, dated 2020):
Structures can show the parent of a compound that is named as a salt.

Key:
Human VAP-1 enzyme = target: T1, Human VAP-1 enzyme (Homo sapiens, UniProt Q16853); experiment: Human VAP-1 enzyme inhibition test; assay type: biochemical; conditions: 1 h; compound 30 nM; 14C-benzylamine 100 μM; read-out: inhibition ratio (human VAP-1 enzyme)
T1 construct: purchased R&D Systems, Inc
T1 sequence (Q16853 1-763): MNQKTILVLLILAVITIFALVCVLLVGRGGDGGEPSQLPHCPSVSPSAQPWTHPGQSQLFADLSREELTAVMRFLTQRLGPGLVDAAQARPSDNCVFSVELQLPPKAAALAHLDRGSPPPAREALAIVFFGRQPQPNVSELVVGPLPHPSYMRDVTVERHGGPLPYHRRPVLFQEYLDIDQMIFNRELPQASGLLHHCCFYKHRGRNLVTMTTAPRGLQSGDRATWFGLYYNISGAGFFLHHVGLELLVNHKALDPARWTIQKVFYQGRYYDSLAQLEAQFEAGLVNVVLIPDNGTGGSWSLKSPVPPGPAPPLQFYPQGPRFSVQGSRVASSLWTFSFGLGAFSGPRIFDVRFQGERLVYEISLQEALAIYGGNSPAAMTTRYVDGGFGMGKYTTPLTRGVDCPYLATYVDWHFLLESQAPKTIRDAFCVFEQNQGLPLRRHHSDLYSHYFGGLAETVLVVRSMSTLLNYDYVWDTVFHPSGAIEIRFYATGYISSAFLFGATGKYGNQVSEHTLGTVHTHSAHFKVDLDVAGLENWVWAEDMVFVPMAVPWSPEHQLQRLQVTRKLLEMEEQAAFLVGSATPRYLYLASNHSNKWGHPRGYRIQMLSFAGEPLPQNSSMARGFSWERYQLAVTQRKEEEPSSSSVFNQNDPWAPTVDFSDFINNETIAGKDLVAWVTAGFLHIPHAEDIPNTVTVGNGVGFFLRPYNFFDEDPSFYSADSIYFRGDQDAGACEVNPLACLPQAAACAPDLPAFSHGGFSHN
Summary of the method: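 Activity measured as radioactive oxidation product of 14C-benzylamine (100 μM final), extracted with toluene/ethyl acetate after citric acid stop and scintillation-counted. Enzyme (recombinant human VAP-1) first exposed to compound 20 min at room temperature, reaction then 1 h at 37 °C. Percent inhibition versus DMSO control.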

Rat Plasma VAP-1 = target: T2, Rat Plasma VAP-1 (Rattus norvegicus, UniProt O08590); experiment: (Ex vivo) rat plasma VAP-1 inhibition test after oral administration of the compound; assay type: in vivo; conditions: 3 hours after oral administration, SD male rats, read-out: inhibition ratio (plasma VAP-1, ex vivo)
T2 construct: from tissue; host or cells: plasma of SD male rats (7-12 weeks old) after oral dosing
T2 sequence (O08590 28-763 limits assumed): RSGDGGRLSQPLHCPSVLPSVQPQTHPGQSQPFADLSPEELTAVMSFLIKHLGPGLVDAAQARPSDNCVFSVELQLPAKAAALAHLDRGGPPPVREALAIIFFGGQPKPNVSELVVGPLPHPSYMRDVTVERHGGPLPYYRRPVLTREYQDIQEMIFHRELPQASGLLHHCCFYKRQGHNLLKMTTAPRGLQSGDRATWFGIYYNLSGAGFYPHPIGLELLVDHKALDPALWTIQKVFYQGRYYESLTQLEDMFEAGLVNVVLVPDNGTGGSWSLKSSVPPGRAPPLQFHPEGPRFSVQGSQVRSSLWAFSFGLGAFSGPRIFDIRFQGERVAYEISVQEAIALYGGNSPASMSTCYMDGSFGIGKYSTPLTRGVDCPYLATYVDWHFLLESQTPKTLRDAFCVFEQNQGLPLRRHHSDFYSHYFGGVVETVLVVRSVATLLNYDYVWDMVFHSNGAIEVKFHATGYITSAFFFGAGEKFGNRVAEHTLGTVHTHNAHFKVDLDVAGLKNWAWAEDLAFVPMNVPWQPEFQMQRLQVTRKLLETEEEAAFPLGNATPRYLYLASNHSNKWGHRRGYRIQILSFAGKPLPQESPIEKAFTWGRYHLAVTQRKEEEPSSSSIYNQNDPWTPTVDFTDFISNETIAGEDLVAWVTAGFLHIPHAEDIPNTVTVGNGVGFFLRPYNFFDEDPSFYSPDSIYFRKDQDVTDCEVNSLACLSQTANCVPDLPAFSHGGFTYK
Description: (Ex Vivo) Rat Plasma VAP-1 Inhibition Test after Oral Administration of the Compound
The compound was orally administered (0.3-10 mg/kg) to 7-12 week old SD male rats in the non-fasting state. Under anesthesia, the blood was collected in heparin tubes from the jugular vein before the administration and 3, 8 and 24 hours after the administration. The blood was centrifuged at 14000 rpm for 10 minutes to get plasma. The VAP-1 enzyme activity in the plasma was measured by radiochemical enzyme assay.
The radiochemical enzyme assay was conducted by modifying the method of P. H. Yu et al. (Diabetologia 40 1243 (1997)). ^14C-benzylamine (2.5 μM) was added to the obtained plasma, and was incubated at 37° C. for 3 hours. The reaction was terminated by the addition of 100 μL of 2 M citric acid solution to the reaction solution. The oxidative product was extracted using a toluene/ethyl acetate mixture and the radioactivity was measured with a liquid scintillation counter. The inhibition ratio of the compound was calculated using the following equation. Inhibition ratio={1−[Plasma VAP-1 activity after administration of the compound]/[Plasma VAP-1 activity before administration]}×100

SMILES | inhibition at 0.03 µM (Human VAP-1 enzyme) [%] | inhibition in vivo at 0.3 mg/kg (Rat Plasma VAP-1) [%]
COC(CO)CON=C1CN(c2ncc(-c3cccc(COC(=O)NC(=N)N)c3F)cn2)C1 (centres unmarked) [Example 101, 2-Fluoro-3-(2-{3-[(3-hydroxy-2-methoxypropoxy)imino]azetidin-1-yl}pyrimidin-5-yl)benzyl carbamimidoylcarbamate] | ≥ 50 | ≥ 50
N=C(N)NC(=O)OCc1cccc(-c2cnc(N3CCC(=NO)CC3)nc2)c1F [Example 105, 2-Fluoro-3-{2-[4-(hydroxyimino)piperidin-1-yl]pyrimidin-5-yl}benzyl carbamimidoylcarbamate hydrochloride] | ≥ 50 | ≥ 50
CNC(=O)CCON=C1CCN(c2ncc(-c3cccc(COC(=O)NC(=N)N)c3F)cn2)CC1 [Example 151, 2-Fluoro-3-[2-(4-{[3-(methylamino)-3-oxopropoxy]imino}piperidin-1-yl)pyrimidin-5-yl]benzyl carbamimidoylcarbamate] | ≥ 50 | ≥ 50
CC(=O)NCCON=C1CCN(c2ncc(-c3cccc(COC(=O)NC(=N)N)c3F)cn2)CC1 [Example 155, 3-(2-{4-[(2-Acetamidoethoxy)imino]piperidin-1-yl}pyrimidin-5-yl)-2-fluorobenzyl carbamimidoylcarbamate] | ≥ 50 | ≥ 50
CS(=O)(=O)NCCON=C1CCN(c2ncc(-c3cccc(COC(=O)NC(=N)N)c3F)cn2)CC1 [Example 159, 2-Fluoro-3-[2-(4-{[2-(methylsulfonamido)ethoxy]imino}piperidin-1-yl)pyrimidin-5-yl]benzyl carbamimidoylcarbamate] | ≥ 50 | ≥ 50
N#CCCCON=C1CCN(c2ncc(-c3cccc(COC(=O)NC(=N)N)c3F)cn2)CC1 [Example 166, 3-(2-{4-[(3-Cyanopropoxy)imino]piperidin-1-yl}pyrimidin-5-yl)-2-fluorobenzyl carbamimidoylcarbamate] | ≥ 50 | ≥ 50
CS(=O)(=O)CCON=C1CCN(c2ncc(-c3cccc(COC(=O)NC(=N)N)c3F)cn2)CC1 [Example 167, 2-Fluoro-3-[2-(4-{[2-(methylsulfonyl)ethoxy]imino}piperidin-1-yl)pyrimidin-5-yl]benzyl carbamimidoylcarbamate] | ≥ 50 | ≥ 50
Cn1ccc(CON=C2CCN(c3ncc(-c4cccc(COC(=O)NC(=N)N)c4F)cn3)CC2)n1 [Example 169, 2-Fluoro-3-[2-(4-{[(1-methyl-1H-pyrazol-3-yl)methoxy]imino}piperidin-1-yl)pyrimidin-5-yl]benzyl carbamimidoylcarbamate] | ≥ 50 | ≥ 50
N=C(N)NC(=O)OCc1cccc(-c2cnc(N3CCC(=NOCc4cc[nH]n4)CC3)nc2)c1F [Example 171, 3-[2-(4-{[(1H-pyrazol-3-yl)methoxy]imino}piperidin-1-yl)pyrimidin-5-yl]-2-fluorobenzyl carbamimidoylcarbamate] | ≥ 50 | ≥ 50
N=C(N)NC(=O)OCc1cccc(-c2cnc(N3CCC(=NOCc4cn[nH]c4)CC3)nc2)c1F [Example 173, 3-[2-(4-{[(1H-pyrazol-4-yl)methoxy]imino}piperidin-1-yl)pyrimidin-5-yl]-2-fluorobenzyl carbamimidoylcarbamate] | ≥ 50 | ≥ 50

The remaining lines, values ahead:

inhibition at 0.03 µM (Human VAP-1 enzyme) [%] | inhibition in vivo at 0.3 mg/kg (Rat Plasma VAP-1) [%] | SMILES
≥ 50 | ≥ 50 | N=C(N)NC(=O)OCc1cccc(-c2cnc(N3CCC(=NOCC(CO)CO)CC3)nc2)c1F [Example 97, 2-Fluoro-3-[2-(4-{[3-hydroxy-2-(hydroxymethyl)propoxy]imino}piperidin-1-yl)pyrimidin-5-yl]benzyl carbamimidoylcarbamate]
≥ 50 | ≥ 50 | CC(CO)(CO)CON=C1CCN(c2ncc(-c3cccc(COC(=O)NC(=N)N)c3F)cn2)CC1 [Example 98, 2-Fluoro-3-[2-(4-{[3-hydroxy-2-(hydroxymethyl)-2-methylpropoxy]imino}piperidin-1-yl)pyrimidin-5-yl]benzyl carbamimidoylcarbamate]
≥ 50 | ≥ 50 | N=C(N)NC(=O)OCc1cccc(-c2cnc(N3CCC(=NOCC(O)CO)CC3)nc2)c1F (centres unmarked) [Example 99, 3-(2-{4-[(2,3-Dihydroxypropoxy)imino]piperidin-1-yl}pyrimidin-5-yl)-2-fluorobenzyl carbamimidoylcarbamate]
≥ 50 | ≥ 50 | N=C(N)NC(=O)OCc1cccc(-c2cnc(N3CCC(=NOCCC(N)=O)CC3)nc2)c1F [Example 150, 3-(2-{4-[(3-Amino-3-oxopropoxy)imino]piperidin-1-yl}pyrimidin-5-yl)-2-fluorobenzyl carbamimidoylcarbamate]
≥ 50 | ≥ 50 | N=C(N)NC(=O)OCc1cccc(-c2cnc(N3CCC(=NOCCCC(=O)O)CC3)nc2)c1F [Example 153, 4-[({1-[5-(3-{[(Carbamimidoylcarbamoyl)oxy]methyl}-2-fluorophenyl)pyrimidin-2-yl]piperidin-4-ylidene}amino)oxy]butanoic acid]
≥ 50 | ≥ 50 | CN(C)C(=O)CCON=C1CCN(c2ncc(-c3cccc(COC(=O)NC(=N)N)c3F)cn2)CC1 [Example 154, 3-[2-(4-{[3-(Dimethylamino)-3-oxopropoxy]imino}piperidin-1-yl)pyrimidin-5-yl]-2-fluorobenzyl carbamimidoylcarbamate]
≥ 50 | ≥ 50 | CC(=O)N(C)CCON=C1CCN(c2ncc(-c3cccc(COC(=O)NC(=N)N)c3F)cn2)CC1 [Example 156, 2-Fluoro-3-[2-(4-{[2-(N-methylacetamido)ethoxy]imino}piperidin-1-yl)pyrimidin-5-yl]benzyl carbamimidoylcarbamate]
≥ 50 | ≥ 50 | N#CCCON=C1CCN(c2ncc(-c3cccc(COC(=O)NC(=N)N)c3F)cn2)CC1 [Example 165, 3-(2-{4-[(2-Cyanoethoxy)imino]piperidin-1-yl}pyrimidin-5-yl)-2-fluorobenzyl carbamimidoylcarbamate]
≥ 50 | ≥ 50 | CS(=O)(=O)CCCON=C1CCN(c2ncc(-c3cccc(COC(=O)NC(=N)N)c3F)cn2)CC1 [Example 168, 2-Fluoro-3-[2-(4-{[3-(methylsulfonyl)propoxy]imino}piperidin-1-yl)pyrimidin-5-yl]benzyl carbamimidoylcarbamate]
